From patent US4769461A, “Quinolinyl benzene hydroxamic acids as anti-inflammatory/antiallergic agents” (American Home Products Corporation, priority 1986, dated 1988)
Read-outs that look alike come from different tables or passages of the source.

Tests used:
[1] = system: carrageenan paw edema (acute inflammatory response); experiment: Rat carrageenan paw edema assay; type: in vivo, rat (male Sprague-Dawley); conditions: for ED50: Rattus norvegicus, po, read-out: Oral ED50 (95% C.L.) mg/kg; for % Inhibition at 100 mg/kg (peroral): 1 hour prior to carrageenan, edema at 3 hours
Protocol: The compounds of the invention are further tested in the rat carrageenan paw edema assay to determine their ability to inhibit the acute inflammatory response. This assay is carried out as follows: 140-180 gm male Sprague-Dawley rats, in groups of 6 animals are injected subcutaneously in the right paw with 0.1 ml of 1% carrageenan at zero time. Mercury plethysmographic readings (ml) of the paw are made at zero time and 3 hours later. Test compounds are suspended or dissolved in 0.5% methylcellulose and given perorally 1 hour prior to carrageenan administration. The increase in paw volume (edema in ml.) produced by the carrageenan is measured. […] Unpaired Student's t-test is used to determine statistical significance.

[2] = system: ovalbumin induced bronchospasm mediated by endogenous products of lipoxygenase oxidation of arachidonic acid; experiment: Inhibition of ovalbumin induced bronchospasm in guinea pigs by endogenous mediators of bronchoconstriction; type: in vivo, guinea pig (male Hartley); conditions: 10 minutes before ovalbumin challenge; for ED50: Cavia porcellus
Protocol: The assay of this Example measures the in vivo ability of the compounds of the invention to inhibit the bronchospasm induced in guinea pigs by endogenous mediators of the bronchoconstriction.
(§1) The assay is carried out as follows:
Male Hartley strain guinea pigs weighing 250-350 g are sensitized to chicken ovalbumin (OA) (10 mg i.p.) on days 1 and 3 and used starting on day 26. The animals are anesthetized with pentobarbital sodium (50 mg/kg, i.p.), bilateral vagotomy is performed, and the jugular vein is cannulated for injection of drugs and the carotid artery for monitoring blood pressure. The trachea is cannulated for artificial ventilation by miniature Starling pump and for indirect measurement of respiratory volume changes. Succinylcholine (2 mg/kg, i.v.) is administered to arrest spontaneous respiration. A cyclooxygenase inhibitor, indomethacin (10 mg/kg in tris buffer, i.v. at 9 min.) is administered to shunt arachidonic metabolism to lipoxygenase pathways. One minute later, chlorpheniramine (1.0 mg/kg in saline, i.v.) is given to attenuate the histaminic component of anaphylactic bronchoconstriction. Test drugs (dissolved in propylene glycol, polyethylene glycol or saline) are administered either intraduodenally, perorally or by aerosol at 2 or 10 minutes before antigen challenge. Anaphylactic bronchoconstriction is induced by administration by breaths of aerosolized OA (1%) or by intravenous administration of 0.1-0.3 mg/kg OA in saline. Control animals receive solvent (2 ml/kg i.d. or appropriate aerosol) in place of drug.
(§2) Respiratory volume changes are determined by a calibrated piston whose travel is recorded, via a linear transducer, on a Beckman Dynograph recorder. Maximal bronchoconstrictor volume is determined by clamping off the trachea at the end of the experiment. Overflow volumes at minutes 1, 3 and 5 are obtained from the recorded charts.
Area under the volume overflow curve (AUC) is estimated, using the overflow values at 1, 3 and 5 minutes, and expressed as a percentage of the maximal overflow AUC (equation 1): [formula] Drug effects are reported as percent inhibition of % max AUC values obtained from appropriate control animals (equation 2): [formula] Student's t-test for unpaired data is used to determine statistical significance. Dose response curves are generated and ED50 doses are interpolated from the regression lines.

[3] = system: synthesis of the lipoxygenase product 5-HETE in rat polymorphonuclear leukocytes; experiment: Inhibition of 5-HETE synthesis by rat glycogen elicited polymorphonuclear leukocytes; type: cell-based, rat (female Wistar)
Protocol: The assay of this Example measures the ability of the compounds of the invention to inhibit the synthesis of 5-HETE by rat glycogen elicited polymorphonuclear leukocytes.
as §1
(§3) Peritoneal PMN are obtained from female Wistar rats (150-250 g) that received an i.p. injection of 6% glycogen (10 ml). After 24 hours, rats are killed by CO2 asphyxiation and peritoneal cells are harvested by peritoneal lavage using Ca^++ and Mg^++ free Hanks' balanced salt solution (HBSS). The peritoneal exudate is centrifuged at 400 g for 10 minutes. After centrifugation, the lavaged fluid is removed and the cell pellet is resuspended in HBSS containing Ca^++ and Mg^++ and 10 mM L-cysteine at a concentration of 2×10^7 cells/ml. To 1 ml portions of cell suspension, test drugs or vehicle are added and incubated at 37° C. for 10 minutes. Following this preincubation, the calcium ionophore (10 μM), A23187, is added together with 0.5 μCi [14 C] arachidonic acid and further incubated for 10 minutes. The reaction is stopped by the addition of ice cold water (3 ml) and acidifying to pH 3.5. […] After chromatography, the areas associated with 5-HETE standard are identified by autoradiography, cut out and quantitated by liquid scintillation.
The compounds of this invention are tested in this assay at a level of 10 μm. […] Some results are expressed as an IC50 value.

[4] = system: LTD4 induced bronchoconstriction; experiment: Inhibition of bronchospasm induced in guinea pigs by exogenously administered leukotrienes C4 and/or D4; type: in vivo, guinea pig (male Hartley); conditions: 10 minutes before induction of bronchospasm; for ED50: Cavia porcellus, read-out: IC50 (the source's name)
Protocol: The assay of this Example measures the in vivo ability of the compounds of the invention to inhibit the bronchospasm induced in guinea pigs by the exogenously administered leukotrienes C4 and/or D4.
This assay is carried out as follows:
Male Hartley strain guinea pigs (350-600 g) are anesthetized with pentobarbital sodium (50 mg/kg, i.p.). The jugular vein is cannulated for injection of drugs and the carotid artery for monitoring blood pressure. The trachea is cannulated for artificial ventilation by a miniature Starling pump and for indirect measurement of respiratory volume changes. The animals are then pretreated with succinylcholine (2 mg/kg i.v.) and indomethacin (10 mg/kg i.v. in trizma 8.3 buffer, 9 minutes prior to leukotriene challenge). Submaximal bronchoconstrictor responses are established in control animals by varying the dose-levels of leukotriene. Intravenous dose-levels for LTC4 range from 0.4 to 0.6 μg/kg and for LTD4 the range is from 0.3 to 0.5 μg/kg. The aerosol bronchoprovocation dose for LTC4 is generated from 1.6 μM solution and for LTD4 from a 2.0 μM solution.
Test drugs (dissolved in a solvent such as propylene glycol, polyethylene glycol 400 or saline) are administered either intraduodenally, by aerosol or perorally at 2 or 10 minutes before induction of bronchospasm by administration of either LTC4 or LTD4 at the predetermined dose-levels. Aerosols of soluble drugs or leukotrienes are produced in-line for 10 seconds only by actuation of an ultrasonic nebulizer (Monaghan). Aerosolized drug dosage is expressed in terms of solution concentration and by a fixed aerosol exposure time (approximately 10 seconds). Control animals receive solvent (2 ml/kg i.d. or appropriate aerosol) in place of drug.
as §2, with “at” for “at minutes”, “5 minutes” for “5”
Area under the volume overflow curve (AUC) is estimated, using the overflow values at 1, 3 and 5 minutes, and expressed as a percentage of the maximal overflow AUC (equation 1): [formula] Drug effects are reported as percent inhibition of % max AUC values obtained from appropriate control animals (equation 2): [formula]
Student's t-test for unpaired data is used to determine statistical significance (p<0.05). IC50 values can also be determined by inverse prediction from linear regression lines through points between 10 and 90% inhibition.

[5] = system: synthesis of the cyclooxygenase product PGE2 in rat polymorphonuclear leukocytes; experiment: Inhibition of synthesis of the cyclooxygenase oxidation product PGE2 (procedure of Example 5); type: cell-based, rat (female Wistar); conditions: tested at 10 μm
Protocol: as §3, with “3.5. Lipoxygenase products are then extracted twice into diethyl ether.” for “3.5.”, “scintillation. […]” for “scintillation.”
In this assay, the procedure of Example 5 is carried out as described. […] After chromatography, the areas associated with the PGE2 standard are identified by autoradiography, cut out and quantitated by liquid scintillation techniques.
The results are calculated as in Example 5.

[6] = 25 mg/kg perorally administered

Question: How did the ED50 [1] turn out when `CC(=O)Oc1ccccc1C(=O)O` [Aspirin, reference compound] was run?
Answer: The ED50 was 145 mg/kg.

Question: What does the source list for `CONC(=O)Cc1cccc(OCc2ccc3ccccc3n2)c1` [Example 1, O-methyl-3-[(2-quinolinyl)methoxy]benzeneaceto hydroxamate]?
Answer: % Inhibition of Max AUC ([2]; 25 mg/kg intraduodenal): 56.0%; % Inhibition of Max AUC [2, 6]: 82.8%; ED50 ([2]; po, perorally administered): 2.5 mg/kg; ED50 ([2]; intraduodenal): 7.3 mg/kg; IC50 ([3]; Leukocyte, rat PMN): 10.5 µM; % Inhibition ([4]; 25 mg/kg intraduodenally): 90.6%; % Inhibition ([4]; 25 mg/kg perorally): 86.3%; ED50 ([4]; po, perorally administered): 5.9 mg/kg; ED50 ([4]; intraduodenally administered): 1.8 mg/kg; % Inhibition at 100 mg/kg (peroral) [1]: 50%

Question: `CONC(=O)c1cccc(OCc2ccc3ccccc3n2)c1` [Example 2A, O-methyl-3-[(2-quinolinyl)methoxy]benzoic hydroxyamate] was tested. Which “% Inhibition of Max AUC” value ([2]; 25 mg/kg intraduodenal) did it give?
Answer: Its value is 76.6%.

Question: And the “% Inhibition of Max AUC” value [2, 6]?
Answer: Its value is -1.5%.

Question: And the “% Inhibition” value ([4]; 25 mg/kg intraduodenally)?
Answer: The value was 92.8%.

Question: What about the “% Inhibition” value ([4]; 25 mg/kg perorally) of the same molecule?
Answer: The value was 72.4%.

Question: What about the ED50 ([4]; po, perorally administered) of the same molecule?
Answer: The ED50 was 13.1 mg/kg.

Question: And the ED50 ([4]; intraduodenally administered)?
Answer: The ED50 was 3.16 mg/kg.

Question: What about the “% Inhibition at 100 mg/kg (peroral)” value [1] of the same molecule?
Answer: Its value is 32%.

Question: `O=C(NOCc1ccccc1)c1cccc(OCc2ccc3ccccc3n2)c1` [Example 2B, O-benzyl-3-[(2-quinolinyl)methoxy]benzoic hydroxamate] was tested. Which “>50% Inhibition at 10 μm” value [5] did it give?
Answer: The value was “+ (those compounds having an inhibition of >50% are designated by a "+")”.

Question: And the “>50% Inhibitory at 10 μm” value ([3]; tested at 10 μm)?
Answer: Its value is “+ (those compounds having an inhibition of >50% are designated by a "+")”.

Question: And the “% Inhibition” value ([4]; 25 mg/kg intraduodenally)?
Answer: The value was 69.4%.

Question: What about the “% Inhibition at 100 mg/kg (peroral)” value [1] of the same molecule?
Answer: The value was 42%.

Question: With `O=C(Cc1cccc(OCc2ccc3ccccc3n2)c1)NOCc1ccccc1` [Example 2C, O-benzyl-3-[(2-quinolinyl)methoxy]benzeneaceto hydroxamate] as the molecule, how does the “% Inhibition at 100 mg/kg (peroral)” value [1] read?
Answer: Its value is 37%.

Question: With `CONC(=O)Cc1cccc(OCc2nc3ccccc3n2C)c1` [Example 2D, O-methyl-3-[1-methyl(2-benzimidazoyl)methoxy]benzoaceto hydroxamate] as the molecule, how does the “>50% Inhibition at 10 μm” value [5] read?
Answer: Its value is “+ (those compounds having an inhibition of >50% are designated by a "+")”.

Question: What about the “% Inhibition at 100 mg/kg (peroral)” value [1] of the same molecule?
Answer: Its value is 48%.

Question: `CONC(=O)Cc1cccc(OCc2nc3ccccc3s2)c1` [Example 2E, O-methyl-3-[(2-benzthiazoyl)methoxy]benzoaceto hydroxamate] was tested. Which “% Inhibition at 100 mg/kg (peroral)” value [1] did it give?
Answer: The value was 38%.

Question: For `O=C(Cc1cccc(OCc2ccc3ccccc3n2)c1)NO` [Example 3, 3-[(2-Quinolinyl)methoxy]benzeneaceto hydroxamic acid], which “% Inhibition” value ([4]; 25 mg/kg intraduodenally) is on record?
Answer: The value was 10%.

Question: `O=C(NO)c1cccc(OCc2ccc3ccccc3n2)c1` [Example 4A, 3-[(2-quinolinyl)methoxy]benzoic hydroxamic acid] was tested. Which “% Inhibition” value ([4]; 25 mg/kg intraduodenally) did it give?
Answer: Its value is 32.8%.

Question: How did the ED50 [1] turn out when `COc1ccc2c(c1)c(CC(=O)O)c(C)n2C(=O)c1ccc(Cl)cc1` [Indomethacin, reference compound] was run?
Answer: The ED50 was 3.7 mg/kg.
